Measured values taken from patent publication US20200405666A9, “TREATMENT OF SYMPTOMS ASSOCIATED WITH FEMALE GASTROPARESIS” (priority 2011, published 2020).

System: symptoms of diabetic gastroparesis
Assay: Phase 2 randomized, double-blind, placebo-controlled study METO-IN-002 of metoclopramide nasal spray: symptom scores (mGCSI-DD, GCSI-DD, PAGI-SYM, other endpoints)
Format: in vivo, human
Design: key to Stomach Fullness / Early Satiety / Feeling Full / Loss of Appetite / Bloating / Stomach Larger / Upper Abdominal Pain / Upper Abdominal Discomfort / mGCSI-DD (primary endpoint) / Nausea / Retching / Vomiting / Sheehan Disability Scales / Investigator Assessment of Overall Gastroparesis Severity / Subject Assessment of Overall Gastroparesis Severity / Investigator Assessment of Overall Treatment Effect / Subject Assessment of Overall Treatment Effect / Days w/o Vomiting / Days w/o Nausea / Days w/o Vomiting or Nausea / Days w/o Upper Abdominal Pain or Upper Abdominal Discomfort / Nausea Response by Response Threshold / GCSI-DD / Days w/o Vomiting or Retching &, No Use of Rescue Medication / Nausea Responder Analysis / Overall Severity of Gastroparesis Symptoms - Subject / PAGI-SYM Questionnaire / Nausea/Vomiting (listed under PAGI-SYM Questionnaire) / Bloating (listed under PAGI-SYM Questionnaire) / Upper Abdominal Pain/Discomfort (listed under PAGI-SYM Questionnaire) / Early Satiety (listed under PAGI-SYM Questionnaire): A=Favors Active; P=Favors Placebo
Conditions: for Statistically significant improvement in mGCSI-DD score (in words): 10 mg IN and 14 mg IN arms, Baseline to Week 4
Method: Example 1: A Multicenter, Randomized, Double-Blind, Placebo-Controlled, Parallel Group, Dose-Ranging Clinical Study to Evaluate the Efficacy and Safety of Metoclopramide Nasal Spray Solution in Diabetic Subjects with Gastroparesis
The objectives of this study were to evaluate the safety and the effectiveness of two doses of metoclopramide nasal spray solution, 10 mg and 14 mg, compared to placebo in reducing the symptoms of diabetic gastroparesis and to assess the plasma concentrations of two doses of metoclopramide nasal spray in subjects with diabetic gastroparesis following a single dose and at steady state. The aforementioned dosages for the treatment and control of gastroparesis were administered before meals and/or before bed time. Subjects who met the entry criteria after the Washout Period (Day −7 to Day −1) were randomized using an IVRS, to metoclopramide nasal spray 10 mg, 14 mg, or placebo, in roughly equal numbers (approximately 1:1:1) using a predetermined randomization schedule employing permuted blocks. Randomization was preformed centrally.
Metoclopramide nasal spray solution, 200 mg/mL base (as monohydrochloride monohydrate) is a clear colorless to pale-yellow aqueous solution manufactured for Evoke Pharma. The metoclopramide nasal spray was packaged in a 10 mL amber glass vial mounted with a metered nasal spray pump. The metered dose vial delivered a 50 μL or 70 μL spray (10 mg or 14 mg of metoclopramide base respectively) with each actuation. One 10 mL vial contained sufficient metoclopramide nasal spray to deliver 120 doses of 10 mg or 14 mg.
A vehicle control was used as the placebo for metoclopramide nasal spray solution. The placebo spray was packaged in a 10 mL amber glass vial mounted with a metered nasal spray pump. The metered dose vial delivered a 50 μL spray with each actuation. One 10 mL vial contained sufficient placebo to deliver 120 doses. The delivery of either a 50 μL or 70 μL spray is indistinguishable to the subject or study staff.
A 7-day Washout Period preceded randomization. During this time, and for the duration of the study, subjects were asked to discontinue use of all medications that are known to ameliorate or exacerbate symptoms associated with diabetic gastroparesis. Subjects were trained on the use of an interactive voice response system (IVRS) to record the severity of nine gastroparesis symptoms of the GCSI-DD and additional symptoms such as: severity of abdominal pain and abdominal discomfort, number of hours of nausea, number of episodes of vomiting, and overall severity of gastroparesis symptoms in a daily diary. The IVRS was used during the treatment period for self-reported assessments. Subjects completed these diary assessments via the IVRS each evening.
Subjects with a mean GCSI-DD total score of <2.0 or >4.0 during the 7-day Washout Period were excluded from the study.
At the Randomization Visit (Day 0), the Patient Assessment of Upper Gastrointestinal Disorders Symptoms (PAGI-SYM) Questionnaire, and disability questionnaires were administered to the subject and the Investigator and subject assessed overall gastroparesis symptom severity (OGS) prior to taking study drug. Subjects began taking the study drug at the clinical site with a single dose on Day 0. The subjects returned to the clinic for safety and efficacy evaluations on Visits 4, 5, 6, and 7 (Days 7, 14, 21, and 28).
At each scheduled study visit to the clinical study site, the IVRS daily diary compliance was reviewed. In addition, at Visit 5 (Day 14), the PAGI-SYM Questionnaire was administered to the subject and the Investigator and subject assessed OGS severity. At the Final Visit (Day 28) subjects took their last dose of study drug at the clinical site and returned their vial of unused/remaining study drug. The subject completed the PAGI-SYM, and disability questionnaires. The Investigator and subject assessed OGS and overall treatment effect (OTE). […]

[1] = all subjects (ITT), 10 mg IN four times daily
[2] = all subjects (ITT), 14 mg IN four times daily
[3] = females, 10 mg IN four times daily
[4] = females, 10 mg IN four times daily, Week 4, vs placebo
[5] = females, 10 mg IN four times daily, listed as Metoclopramide
[6] = females, 14 mg IN four times daily
[7] = females, 14 mg IN four times daily, Week 4, vs placebo

## CCN(CC)CCNC(=O)c1cc(Cl)c(N)cc1OC [metoclopramide, -amino-5-chloro-N-(2-(diethylamino)ethyl)-2-methoxybenzamide]
[1]
  Mean Change from Baseline to Week 4 in mGCSI-DD: −1.2
  Mean mGCSI-DD total score at Week 4: 1.6
[2]
  Mean Change from Baseline to Week 4 in mGCSI-DD: −1.2
  Mean mGCSI-DD total score at Week 4: 1.7
All subjects
  Statistically significant improvement in mGCSI-DD score (in words): neither Treatment Arm experienced statistically significant improvement
All subjects, 10 mg IN vs placebo
  Difference of Least Square Means, mGCSI-DD change from Baseline to Week 4: −0.20
All subjects, 14 mg IN vs Metoclopramide 10 mg
  Difference of Least Square Means, mGCSI-DD change from Baseline to Week 4: 0.06
All subjects, 14 mg IN vs placebo
  Difference of Least Square Means, mGCSI-DD change from Baseline to Week 4: −0.14
Female subjects, 11 symptoms collected
  Symptoms with statistical separation or improved trends compared to placebo: 11 of 11
females
  Statistically significant improvement in mGCSI-DD score (in words): statistically significant improvement
[3]
  Mean Change from Baseline to Week 4 in mGCSI-DD: −1.2 (−1.2)
  Mean mGCSI-DD total score at Week 4: 1.6 (1.6)
[4]
  Bloating: A
  Bloating (listed under PAGI-SYM Questionnaire): A
  Days w/o Nausea: A (p < 0.05)
  Days w/o Upper Abdominal Pain or Upper Abdominal Discomfort: A
  Days w/o Vomiting: A
  Days w/o Vomiting or Nausea: A (p < 0.05)
  Days w/o Vomiting or Retching &, No Use of Rescue Medication: A
  Early Satiety: A
  Early Satiety (listed under PAGI-SYM Questionnaire): A
  Feeling Full: A (p < 0.05)
  GCSI-DD: A (p < 0.05)
  Investigator Assessment of Overall Gastroparesis Severity: A
  Investigator Assessment of Overall Treatment Effect: P
  Loss of Appetite: A
  Nausea: A (p < 0.05)
  Nausea Responder Analysis: A
  Nausea Response by Response Threshold: A (p < 0.05)
  Nausea/Vomiting (listed under PAGI-SYM Questionnaire): A
  Overall Severity of Gastroparesis Symptoms - Subject: A (p < 0.05)
  PAGI-SYM Questionnaire: A
  Retching: A
  Sheehan Disability Scales: A
  Stomach Fullness: A
  Stomach Larger: A
  Subject Assessment of Overall Gastroparesis Severity: A
  Subject Assessment of Overall Treatment Effect: A
  Upper Abdominal Discomfort: A
  Upper Abdominal Pain: A (p < 0.05)
  Upper Abdominal Pain/Discomfort (listed under PAGI-SYM Questionnaire): A
  Vomiting: A
  mGCSI-DD (primary endpoint): A (p < 0.05)
[5]
  Mean Change from Baseline to Week 4 in mGCSI-DD: −1.2
  Mean mGCSI-DD total score at Week 4: 1.6
females, 10 mg IN vs placebo
  Difference of Least Square Means, mGCSI-DD change from Baseline to Week 4: −0.38
[6]
  Mean Change from Baseline to Week 4 in mGCSI-DD: −1.3
  Mean mGCSI-DD total score at Week 4: 1.7 (1.7)
[7]
  Bloating: A
  Bloating (listed under PAGI-SYM Questionnaire): A
  Days w/o Nausea: A (p < 0.05)
  Days w/o Upper Abdominal Pain or Upper Abdominal Discomfort: P
  Days w/o Vomiting: A
  Days w/o Vomiting or Nausea: A (p < 0.05)
  Days w/o Vomiting or Retching &, No Use of Rescue Medication: A
  Early Satiety: A
  Early Satiety (listed under PAGI-SYM Questionnaire): A
  Feeling Full: A
  GCSI-DD: A (p < 0.05)
  Investigator Assessment of Overall Gastroparesis Severity: A
  Investigator Assessment of Overall Treatment Effect: A
  Loss of Appetite: A
  Nausea: A (p < 0.05)
  Nausea Responder Analysis: A (p < 0.05)
  Nausea Response by Response Threshold: A (p < 0.05)
  Nausea/Vomiting (listed under PAGI-SYM Questionnaire): A (p < 0.05)
  Overall Severity of Gastroparesis Symptoms - Subject: A
  PAGI-SYM Questionnaire: A
  Retching: A
  Sheehan Disability Scales: A
  Stomach Fullness: A
  Stomach Larger: A (p < 0.05)
  Subject Assessment of Overall Gastroparesis Severity: A
  Subject Assessment of Overall Treatment Effect: A
  Upper Abdominal Discomfort: A
  Upper Abdominal Pain: A (p < 0.05)
  Upper Abdominal Pain/Discomfort (listed under PAGI-SYM Questionnaire): A
  Vomiting: A
